# Measured values as given in patent US10793535B2, “Heterocyclic glutaminase inhibitors” (Calithera Biosciences, Inc., priority 2012, dated 2020).
# Tested on: P493-6 (myc "on") cells
# Test: Cell proliferation assay
# Assay type: cell-based
# Conditions: P493-6, 72 h, read-out: Cell prolif P493 72 h IC50
# Procedure: P493-6 (myc “on”) cells were maintained in growth media (RPMI-1640, 10% FBS, 2 mM glutamine, 100 units/ml Penicillin and 100 μg/ml streptomycin) at 37° C. with 5% CO2. For compound assay, P493-6 cells were plated in 96-well V-bottom plates on the day of compound addition in 50 μl of growth media at a cell density of 200,000 cells/ml (10,000 cells/well). Compounds were serially diluted in 100% DMSO at 200-times the final concentration. Compounds were diluted 100-fold into growth media and then 50 μl of this mixture was added to cell plates making the final concentration of DMSO 0.5%. Cells were incubated with compound for 72 hrs at 37° C. with 5% CO2 and analyzed for antiproliferative effects either by Cell Titer Glo (Promega) or FACS analysis using the Viacount (Millipore) kit on the Guava instrument.
row,Compound,IC50 [nM]
1,O=C(Cc1cc(OC(F)(F)F)ccc1F)Nc1ccc(CCCCc2nnc(NC(=O)Cc3ccccn3)s2)nn1 [Compound 720],920
2,Nc1cccc(CC(=O)Nc2nnc(CCCCc3ccc(NC(=O)Cc4cccc(OC(F)(F)F)c4)nn3)s2)n1 [Compound 725],150
3,CS(=O)(=O)c1cccc(CC(=O)Nc2nnc(CCCCc3ccc(NC(=O)Cc4cccc(OC(F)(F)F)c4)nn3)s2)c1 [Compound 681],19
4,CC(C)(C)OC(=O)Nc1cccc(CC(=O)Nc2nnc(CCCCc3ccc(NC(=O)Cc4cccc(OC(F)(F)F)c4)nn3)s2)n1 [Compound 724],34
5,O=C(Cc1cccc(OC(F)(F)F)c1)Nc1ccc(CCCCc2nnc(NC(=O)Cc3ccncc3)s2)nn1 [Compound 672],45
6,COc1cccc(CC(=O)Nc2nnc(CCCCc3ccc(NC(=O)Cc4cccc(OC(F)(F)F)c4)nn3)s2)c1 [Compound 658],40
7,CC(C)(C)OC(=O)n1cnc(CC(=O)Nc2nnc(CCCCc3ccc(NC(=O)Cc4cccc(OC(F)(F)F)c4)nn3)s2)c1 [Compound 696],34
8,O=C(Cc1ccccn1)Nc1nnc(CCCCc2ccc(NC(=O)C(O)c3ccccc3)nn2)s1 (stereo not shown) [Compound 715],390
9,Cc1nn(C(=O)OC(C)(C)C)c(C)c1CC(=O)Nc1nnc(CCCCc2ccc(NC(=O)Cc3cccc(OC(F)(F)F)c3)nn2)s1 [Compound 694],29
10,COc1ccc(CC(=O)Nc2ccc(CCCCc3nnc(NC(=O)Cc4ccccn4)s3)nn2)cc1OC(F)(F)F [Compound 722],16
11,O=C(Cc1cccc(OC(F)(F)F)c1)Nc1ccc(CCCCc2nnc(NC(=O)Cc3ccccc3F)s2)nn1 [Compound 673],33
12,Cc1c(CC(=O)Nc2nnc(CCCCc3ccc(NC(=O)Cc4cccc(OC(F)(F)F)c4)nn3)s2)cnn1C [Compound 686],10
13,O=C(Cc1ccccc1OC(F)(F)F)Nc1ccc(CCCCc2nnc(NC(=O)Cc3ccccc3)s2)nn1 [Compound 614],82
14,O=C(Cc1ccccc1)Nc1nnc(CCSCCc2nnc(NC(=O)Cc3ccccc3)s2)s1 [Compound 1],470
15,O=C(Cc1cccc(OC(F)(F)F)c1)Nc1ccc(CCCCc2nnc(NC(=O)Cc3cccc(Cl)c3)s2)nn1 [Compound 680],33
16,O=C(Cc1cccc(OC(F)(F)F)c1)Nc1ccc(CCCCc2nnc(NC(=O)Cc3cccnc3)s2)nn1 [Compound 671],35
17,Cc1n[nH]c(C)c1CC(=O)Nc1nnc(CCCCc2ccc(NC(=O)Cc3cccc(OC(F)(F)F)c3)nn2)s1 [Compound 695],30
18,O=C(Cc1cccc(OC(F)(F)F)c1)Nc1ccc(CCCCc2nnc(NC(=O)Cc3cc(F)ccc3F)s2)nn1 [Compound 659],58
19,CC(C)(C)OC(=O)NCc1cccc(CC(=O)Nc2nnc(CCCCc3ccc(NC(=O)Cc4cccc(OC(F)(F)F)c4)nn3)s2)c1 [Compound 586],31
20,O=C(Cc1cccc(OC(F)(F)F)c1)Nc1ccc(CCCCc2nnc(NC(=O)Cn3cc(Cl)cn3)s2)nn1 [Compound 700],170
21,O=C(Cc1ccc(OC(F)(F)F)cc1)Nc1ccc(CCCCc2nnc(NC(=O)Cc3ccccc3)s2)nn1 [Compound 615],120

row,Compound,IC50 [nM]
1,O=C(Cc1cccc(OC(F)(F)F)c1)Nc1ccc(CCCCc2nnc(NC(=O)Cc3ccc(Cl)nc3)s2)nn1 [Compound 683],24
2,[2H]C([2H])(CCc1nnc(N)s1)C([2H])([2H])c1ccc(NC(=O)Cc2cccc(OC(F)(F)F)c2)nn1 [Compound 726],610
3,O=C(Cc1cccc(OC(F)(F)F)c1)Nc1ccc(CCCCc2nnc(NC(=O)C(O)c3ccccc3)s2)nn1 (stereo not shown) [Compound 689],13
4,O=C(Cc1cccc(OC(F)(F)F)c1)Nc1ccc(CCCCc2nnc(NC(=O)CN3CCCCC3=O)s2)nn1 [Compound 707],85
5,Cn1ccc(CC(=O)Nc2nnc(CCCCc3ccc(NC(=O)Cc4cccc(OC(F)(F)F)c4)nn3)s2)n1 [Compound 687],11
6,Cc1nc(CC(=O)Nc2nnc(CCCCc3ccc(NC(=O)Cc4cccc(OC(F)(F)F)c4)nn3)s2)c(C)s1 [Compound 688],12
7,O=C(Cc1cccc(OC(F)(F)F)c1)Nc1ccc(CCCCc2nnc(NC(=O)Cc3c[nH]cn3)s2)nn1 [Compound 697],50
8,Nc1ccc(CCCCc2nnc(NC(=O)Cc3ccccn3)s2)nn1 [Compound 706],14000
9,O=C(Cc1cccc(OC(F)(F)F)c1)Nc1ccc(CCCCc2nnc(NC(=O)Cc3cccc(F)c3F)s2)nn1 [Compound 663],89
10,O=C(Cc1cccc(OC(F)(F)F)c1)Nc1ccc(CCCCc2nnc(NC(=O)Cn3cccn3)s2)nn1 [Compound 693],70
11,CCCC(=O)OCN(C(=O)Cc1ccccc1)c1nnc(CCCCc2ccc(NC(=O)Cc3cccc(OC(F)(F)F)c3)nn2)s1 [Compound 629],65
12,CC(C(=O)Nc1nnc(CCCCc2ccc(NC(=O)Cc3cccc(OC(F)(F)F)c3)nn2)s1)c1ccccc1 (stereo not shown) [Compound 636],59
13,O=C(Cc1cccc(OC(F)(F)F)c1)Nc1ccc(CCCCc2nnc(NC(=O)Cc3cc(F)cc(F)c3)s2)nn1 [Compound 662],55
14,COc1ccc(OC(F)(F)F)cc1CC(=O)Nc1ccc(CCCCc2nnc(NC(=O)Cc3ccccn3)s2)nn1 [Compound 717],190
15,CC(C)c1cn(CC(=O)Nc2nnc(CCCCc3ccc(NC(=O)Cc4cccc(OC(F)(F)F)c4)nn3)s2)nn1 [Compound 699],120
16,CSc1cccc(CC(=O)Nc2nnc(CCCCc3ccc(NC(=O)Cc4cccc(OC(F)(F)F)c4)nn3)s2)c1 [Compound 674],24
17,O=C(Cc1cccc(OC(F)(F)F)c1)Nc1ccc(CCCCc2nnc(NC(=O)Cc3cnccn3)s2)nn1 [Compound 676],30
18,O=C(Cc1ccc(O)c(OC(F)(F)F)c1)Nc1ccc(CCCCc2nnc(NC(=O)Cc3ccccn3)s2)nn1 [Compound 723],20
19,O=C(Cc1cccc(OC(F)(F)F)c1)Nc1ccc(CCCCc2nnc(NC(=O)C(OC(=O)C(O)c3ccccc3)c3ccccc3)s2)nn1 (stereo not shown) [Compound 690],17
20,O=C(Cc1cccc(OC(F)(F)F)c1)Nc1ccc(CCCCc2nnc(NC(=O)Cc3ccc(F)cc3)s2)nn1 [Compound 661],120
21,O=C(Cc1cccc(OC(F)(F)F)c1)Nc1ccc(CCCCc2nnc(NC(=O)Cc3cscn3)s2)nn1 [Compound 678],26

row,Compound,IC50 [nM]
1,N#Cc1cccc(CC(=O)Nc2nnc(CCCCc3ccc(NC(=O)Cc4cccc(OC(F)(F)F)c4)nn3)s2)c1 [Compound 692],20
2,Cc1cccc(CC(=O)Nc2nnc(CCCCc3ccc(NC(=O)Cc4cccc(OC(F)(F)F)c4)nn3)s2)n1 [Compound 728],18
3,COc1cc(CC(=O)Nc2ccc(CCCCc3nnc(NC(=O)Cc4ccccn4)s3)nn2)cc(OC(F)(F)F)c1 [Compound 729],26
4,O=C(Cc1cccc(OC(F)(F)F)c1)Nc1ccc(CCCCc2nnc(NC(=O)Cc3ccon3)s2)nn1 [Compound 677],56
5,O=C(Cc1cccc(OC(F)(F)F)c1)Nc1ccc(CCCCc2nnc(NC(=O)Cc3cccc(OC(F)F)c3)s2)nn1 [Compound 668],26
6,O=C(Cc1cccc(OC(F)(F)F)c1)Nc1ccc(CCCCc2nnc(NC(=O)Cc3cccc[n+]3[O-])s2)nn1 [Compound 716],180
7,Cn1cc(CC(=O)Nc2nnc(CCCCc3ccc(NC(=O)Cc4cccc(OC(F)(F)F)c4)nn3)s2)cn1 [Compound 685],22
8,O=C(Cc1cc(O)cc(OC(F)(F)F)c1)Nc1ccc(CCCCc2nnc(NC(=O)Cc3ccccn3)s2)nn1 [Compound 730],25
9,O=C(Cc1cccc(OC(F)F)c1)Nc1ccc(CCCCc2nnc(NC(=O)Cc3ccccc3)s2)nn1 [Compound 666],58
10,Nc1nnc(CCCCc2ccc(NC(=O)Cc3cccc(OC(F)(F)F)c3)nn2)s1 [Compound 657],1500
11,Cc1cc(C)n(CC(=O)Nc2nnc(CCCCc3ccc(NC(=O)Cc4cccc(OC(F)(F)F)c4)nn3)s2)n1 [Compound 701],110
12,C[S+]([O-])c1cccc(CC(=O)Nc2nnc(CCCCc3ccc(NC(=O)Cc4cccc(OC(F)(F)F)c4)nn3)s2)c1 (stereo not shown) [Compound 682],17
13,O=C(Cc1cccc(OC(F)(F)F)c1)Nc1ccc(CCCCc2nnc(NC(=O)CN3C(=O)CCC3=O)s2)nn1 [Compound 708],2800
14,Cc1ccn(CC(=O)Nc2nnc(CCCCc3ccc(NC(=O)Cc4cccc(OC(F)(F)F)c4)nn3)s2)n1 [Compound 698],98
15,CCOC(=O)NCc1cccc(CC(=O)Nc2nnc(CCCCc3ccc(NC(=O)Cc4cccc(OC(F)(F)F)c4)nn3)s2)c1 [Compound 600],8
16,O=C(Cc1cc(OC(F)(F)F)ccc1O)Nc1ccc(CCCCc2nnc(NC(=O)Cc3ccccn3)s2)nn1 [Compound 718],15
17,O=C(Cc1cccc(OC(F)(F)F)c1)Nc1ccc(CCCCc2nnc(NC(=O)Cc3cccc(OCC(F)(F)F)c3)s2)nn1 [Compound 669],26
18,CCCC(=O)OCN(C(=O)Cc1ccccc1)c1nnc(CCCCc2ccc(NC(=O)Cc3ccccc3)nn2)s1 [Compound 402],54
19,O=C(Cc1cccc(OC(F)(F)F)c1)Nc1ccc(CCCCc2nnc(NC(=O)Cc3cncnc3)s2)nn1 [Compound 675],40
20,O=C(Cc1ccc(Cl)c(OC(F)(F)F)c1)Nc1ccc(CCCCc2nnc(NC(=O)Cc3ccccn3)s2)nn1 [Compound 721],22
21,COCCC(C(=O)Nc1nnc(CCCCc2ccc(NC(=O)Cc3cccc(OC(F)(F)F)c3)nn2)s1)c1cccnc1 (stereo not shown) [Compound 684],42

# Same assay, conditions: read-out: Cell prolif P493 72 h IC50; 72 h
row,Compound,IC50 [nM]
1,[2H]C([2H])(CCc1nnc(NC(=O)Cc2ccccn2)s1)C([2H])([2H])c1ccc(NC(=O)Cc2cccc(OC(F)(F)F)c2)nn1 [Compound 727],12
